In US7786141B2 (Vertex Pharmaceuticals Incorporated, priority 2004, dated 2010):
Read-outs that look alike come from different tables or passages of the source.

How the values were obtained:
M1 muscarinic receptor = target: T1, M1 muscarinic receptor (Homo sapiens, UniProt P11229); test: Functional mobilization of intracellular calcium (FLIPR) in M1-CHO cells; assay type: cell-based
T1 construct: expressed in transfected cells; host or cells: CHO (M1-CHO)
T1 sequence (P11229 1-460): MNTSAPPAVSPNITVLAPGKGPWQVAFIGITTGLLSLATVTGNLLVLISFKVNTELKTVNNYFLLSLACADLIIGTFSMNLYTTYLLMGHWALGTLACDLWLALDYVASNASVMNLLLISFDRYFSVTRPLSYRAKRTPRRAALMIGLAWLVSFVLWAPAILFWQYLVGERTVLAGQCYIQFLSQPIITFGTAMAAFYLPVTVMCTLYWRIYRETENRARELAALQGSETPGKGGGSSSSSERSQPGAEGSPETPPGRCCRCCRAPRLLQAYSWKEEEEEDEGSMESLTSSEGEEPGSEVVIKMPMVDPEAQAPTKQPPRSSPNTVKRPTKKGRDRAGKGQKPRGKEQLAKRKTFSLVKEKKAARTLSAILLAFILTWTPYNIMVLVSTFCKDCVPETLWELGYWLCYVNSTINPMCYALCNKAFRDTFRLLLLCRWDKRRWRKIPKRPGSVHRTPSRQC
Procedure, shortened: (§1)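 Two modes: direct compound addition for agonism, or 15 min compound pre-incubation (or co-application) before carbachol at EC80 for inhibition. Calcium signal from Fluo-3 AM or Calcium 3 dye in CHO cells, 1 mM probenecid, pH 7.4, read 60 sec at 488/540 nm; DMSO 0.5% final.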

M4 muscarinic receptor = target: T2, M4 muscarinic receptor (Homo sapiens, UniProt P08173); test: Functional mobilization of intracellular calcium (FLIPR) in M4-CHO cells; assay type: cell-based
T2 construct: expressed in transfected cells; host or cells: CHO (M4-CHO)
T2 sequence (P08173 1-479): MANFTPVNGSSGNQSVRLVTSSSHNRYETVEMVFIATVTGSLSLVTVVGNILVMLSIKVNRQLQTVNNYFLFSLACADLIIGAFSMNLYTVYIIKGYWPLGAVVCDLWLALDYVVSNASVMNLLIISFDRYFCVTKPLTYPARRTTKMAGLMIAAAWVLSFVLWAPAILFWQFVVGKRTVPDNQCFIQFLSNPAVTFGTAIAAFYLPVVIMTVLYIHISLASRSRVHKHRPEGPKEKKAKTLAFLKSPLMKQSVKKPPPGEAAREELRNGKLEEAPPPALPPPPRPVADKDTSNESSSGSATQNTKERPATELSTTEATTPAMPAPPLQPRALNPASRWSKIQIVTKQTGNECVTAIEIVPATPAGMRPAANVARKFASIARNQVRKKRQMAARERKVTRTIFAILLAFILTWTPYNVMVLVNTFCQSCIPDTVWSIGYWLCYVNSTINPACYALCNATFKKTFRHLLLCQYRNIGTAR
Procedure, shortened: as §1

[1] = Table 4, 100% efficacy is the maximum response obtained with the Carbachol control
[2] = Table 4, modulating M1 receptor
[3] = Table 4, modulating M4 receptor
[4] = M1 receptor, calcium mobilization
[5] = M1 receptor, calcium mobilization, read-out: M1 Efficacy
[6] = M4 receptor, calcium mobilization
[7] = M4 receptor, calcium mobilization, read-out: M4 Efficacy
[8] = Table 4, M1 receptor, calcium mobilization (FLIPR)
[9] = Table 4, M4 receptor, calcium mobilization (FLIPR)
[10] = M1-CHO cells, calcium mobilization (FLIPR)
[11] = M1-CHO cells, calcium mobilization (FLIPR), read-out: M1 Efficacy
[12] = M4-CHO cells, calcium mobilization (FLIPR)
[13] = M4-CHO cells, calcium mobilization (FLIPR), read-out: M4 Efficacy

Row | SMILES | Emax (M1 muscarinic receptor; [1]) [%] | Emax (M4 muscarinic receptor; [1]) [%] | M1 Activity (M1 muscarinic receptor; [4]) | Emax (M1 muscarinic receptor; [5]) [%] | M4 Activity (M4 muscarinic receptor; [6]) | Emax (M4 muscarinic receptor; [7]) [%] | further results
1 | CCOC(=O)N1CC[C@H](CN2CCC3(CC2)CN(C(=O)N(C)C)c2ccc(F)cc23)C1 [compound 695] | 25 to 100 | 25 to 100 |  |  |  |  | M1 Activity (M1 muscarinic receptor; [2]): xxx (activity was measured to be less than 2.0 μM); M4 Activity (M4 muscarinic receptor; [3]): xxx (activity was measured to be less than 2.0 μM)
2 | CCOC(=O)N1CCC(N2CCC3(CC2)CN(C(C)=O)c2c(-c4ccc(C(F)(F)F)cc4)cccc23)CC1 [compound 653] | 25 to 100 | 25 to 100 |  |  |  |  | M1 Activity (M1 muscarinic receptor; [2]): x (activity was measured to be greater than 5.0 μM); M4 Activity (M4 muscarinic receptor; [3]): x (activity was measured to be greater than 5.0 μM)
3 | CC(C)OC(=O)N1C2CCC1CC(N1CCC3(CC1)COc1ccc(F)cc13)C2 (stereo not drawn) [compound 320] |  |  | xx (activity was measured to be between 0.1 μM and 1.0 μM) | 65 to 85 | x (activity was measured to be greater than 1.0 μM) | < 65 | 
4 | Fc1ccc2c(c1)C1(CCN(CC3CC4C=CC3C4)CC1)CN2 (stereo not drawn) [compound 183] |  |  | xx (activity was measured to be between 0.1 μM and 1.0 μM) | 65 to 85 | x (activity was measured to be greater than 1.0 μM) | 65 to 85 | 
5 | CN(C)C(=O)N1CC2(CCN(C3CCN(C(=O)OCC4CC4)CC3)CC2)c2cc(F)ccc21 [compound 595] | 25 to 100 | 25 to 100 |  |  |  |  | M1 Activity (M1 muscarinic receptor; [2]): xxx (activity was measured to be less than 2.0 μM); M4 Activity (M4 muscarinic receptor; [3]): xxx (activity was measured to be less than 2.0 μM)
6 | CCOC(=O)N1C2CCC1CC(N1CCC3(CC1)CN(C(C)=O)c1ccc(S(C)(=O)=O)cc13)C2 (stereo not drawn) [compound 580] | 25 to 100 | 25 to 100 |  |  |  |  | M1 Activity (M1 muscarinic receptor; [2]): xxx (activity was measured to be less than 2.0 μM); M4 Activity (M4 muscarinic receptor; [3]): x (activity was measured to be greater than 5.0 μM)
7 | CCOC(=O)N1CCC(N2CCC3(CC2)CN(C(=O)c2ccccc2F)c2ccc(F)cc23)CC1 [compound 267] |  |  | x (activity was measured to be greater than 1.0 μM) | < 65 | x (activity was measured to be greater than 1.0 μM) | < 65 | 
8 | CC(=O)N1CC2(CCN(C3CCC(C(F)(F)F)CC3)CC2)c2cc(F)ccc21 (stereo not drawn) [compound 236] |  |  | xxx (activity was measured to be less than 0.1 μM) | 65 to 85 | xx (activity was measured to be between 0.1 μM and 1.0 μM) | 65 to 85 | 
9 | CCOC(=O)N1CCC(N2CCC3(CC2)CN(C(=O)OC(C)C)c2ccc(F)cc23)CC1 [compound 145] |  |  | xxx (activity was measured to be less than 0.1 μM) | > 85 | x (activity was measured to be greater than 1.0 μM) | > 85 | 
10 | CC(=O)NC1CCC2(CCN(CCC3CCN(C(=O)N(C)C)CC3)CC2)c2ccccc21 (stereo not drawn) [compound 999] | 25 to 100 | < 25 |  |  |  |  | M1 Activity (M1 muscarinic receptor; [8]): xxx (activity was measured to be less than 2.0 μM); M4 Activity (M4 muscarinic receptor; [9]): x (activity was measured to be greater than 5.0 μM)
11 | CCOC(=O)N1C2CCC1CC(N1CCC3(CC1)C(=O)N(C)c1ccccc13)C2 (stereo not drawn) [compound 149] |  |  | xxx (activity was measured to be less than 0.1 μM) | > 85 | x (activity was measured to be greater than 1.0 μM) | > 85 | 
12 | CCOC(=O)N1CCC(CN2CCC3(CC2)CN(C(C)=O)c2c(C(F)(F)F)cccc23)CC1 [compound 529] | 25 to 100 | 25 to 100 |  |  |  |  | M1 Activity (M1 muscarinic receptor; [2]): x (activity was measured to be greater than 5.0 μM); M4 Activity (M4 muscarinic receptor; [3]): xx (activity was measured to be between 2.0 μM and 5.0 μM)
13 | CC(=O)N1CC2(CCN(C3CCCN(C(=O)OC(C)C)CC3)CC2)c2cc(F)ccc21 (stereo not drawn) [compound 395] |  |  |  |  |  |  | EC50 (M1 muscarinic receptor; [10]): < 0.1 µM; Emax (M1 muscarinic receptor; [11]): < 65%; EC50 (M4 muscarinic receptor; [12]): > 1 µM; Emax (M4 muscarinic receptor; [13]): < 65%
14 | CC(=O)N[C@H]1CCC2(CCN(C3CCCCCC3)CC2)c2ccccc21 [compound 881] | 25 to 100 | 25 to 100 |  |  |  |  | M1 Activity (M1 muscarinic receptor; [8]): xxx (activity was measured to be less than 2.0 μM); M4 Activity (M4 muscarinic receptor; [9]): xxx (activity was measured to be less than 2.0 μM)
15 | CCOC(=O)N1C2CCC1CC(N1CCC3(CC1)CN(C(=O)c1cc(C)oc1C)c1ccc(F)cc13)C2 (stereo not drawn) [compound 73] |  |  | xxx (activity was measured to be less than 0.1 μM) | 65 to 85 | xx (activity was measured to be between 0.1 μM and 1.0 μM) | 65 to 85 | 
16 | CCOC(=O)N1CCC(N2CCC3(CC2)CN(C(=O)OCCF)c2ccc(F)cc23)CC1 [compound 370] |  |  | xxx (activity was measured to be less than 0.1 μM) | 65 to 85 | xx (activity was measured to be between 0.1 μM and 1.0 μM) | > 85 | 
17 | CCOC(=O)N1CCC(N2CCC3(CC2)CN(c2ccc(OC)nn2)c2ccc(F)cc23)CC1 [compound 896] | 25 to 100 | 25 to 100 |  |  |  |  | M1 Activity (M1 muscarinic receptor; [8]): xxx (activity was measured to be less than 2.0 μM); M4 Activity (M4 muscarinic receptor; [9]): xxx (activity was measured to be less than 2.0 μM)
18 | CN(C)C(=O)N1CC2(CCN(C3CCN(C(=O)COc4ccccc4)CC3)CC2)c2cc(F)ccc21 [compound 588] | < 25 | < 25 |  |  |  |  | M1 Activity (M1 muscarinic receptor; [2]): x (activity was measured to be greater than 5.0 μM); M4 Activity (M4 muscarinic receptor; [3]): x (activity was measured to be greater than 5.0 μM)
19 | C[C@H](O)CC(=O)N1CCC(N2CCC3(CC2)CN(C(=O)N(C)C)c2ccc(F)cc23)CC1 [compound 662] | 25 to 100 | 25 to 100 |  |  |  |  | M1 Activity (M1 muscarinic receptor; [2]): x (activity was measured to be greater than 5.0 μM); M4 Activity (M4 muscarinic receptor; [3]): xx (activity was measured to be between 2.0 μM and 5.0 μM)
20 | CCOC(=O)N1CCC(N2CCC3(CC2)CN(C(C)=O)c2c(C4=CCCC4)cccc23)CC1 [compound 930] | < 25 | < 25 |  |  |  |  | M1 Activity (M1 muscarinic receptor; [8]): x (activity was measured to be greater than 5.0 μM); M4 Activity (M4 muscarinic receptor; [9]): x (activity was measured to be greater than 5.0 μM)
21 | CCOC(=O)N1CCC(CN2CCCC3(CC2)CN(C(C)=O)c2ccc(F)cc23)CC1 (stereo not drawn) [compound 1003] | 25 to 100 | 25 to 100 |  |  |  |  | M1 Activity (M1 muscarinic receptor; [8]): xxx (activity was measured to be less than 2.0 μM); M4 Activity (M4 muscarinic receptor; [9]): xxx (activity was measured to be less than 2.0 μM)
22 | CCOC(=O)N1CCC(N2CCC3(CC2)CN(C(=O)C2CCCC2)c2ccc(F)cc23)CC1 [compound 17] |  |  | xx (activity was measured to be between 0.1 μM and 1.0 μM) | < 65 | xx (activity was measured to be between 0.1 μM and 1.0 μM) | 65 to 85 | 
23 | CN(C)C(=O)N1CC2(CCN(C3CCCN(C(=O)OCC(F)F)CC3)CC2)c2cc(F)ccc21 (stereo not drawn) [compound 920] | 25 to 100 | 25 to 100 |  |  |  |  | M1 Activity (M1 muscarinic receptor; [8]): xxx (activity was measured to be less than 2.0 μM); M4 Activity (M4 muscarinic receptor; [9]): xxx (activity was measured to be less than 2.0 μM)
24 | CC(=O)N1CC2(CCN(C3CCCCC3C)CC2)c2cc(F)ccc21 (stereo not drawn) [compound 52] |  |  | xxx (activity was measured to be less than 0.1 μM) | > 85 | xxx (activity was measured to be less than 0.1 μM) | 65 to 85 | 
25 | CCOC(=O)N1CCC(N2CCC3(CC2)CN(C(=O)N2CCOCC2)c2ccccc23)CC1 [compound 903] | 25 to 100 | 25 to 100 |  |  |  |  | M1 Activity (M1 muscarinic receptor; [8]): xx (activity was measured to be between 2.0 μM and 5.0 μM); M4 Activity (M4 muscarinic receptor; [9]): xxx (activity was measured to be less than 2.0 μM)
26 | CC(=O)N1CC2(CCN(C3CCN(C(=O)O[C@H]4CCOC4)CC3)CC2)c2cc(C)ccc21 [compound 398] |  |  |  |  |  |  | EC50 (M1 muscarinic receptor; [10]): 0.1 to 1 µM; Emax (M1 muscarinic receptor; [11]): < 65%; EC50 (M4 muscarinic receptor; [12]): > 1 µM; Emax (M4 muscarinic receptor; [13]): < 65%
27 | CC(CF)OC(=O)N1CCC(N2CCC3(CC2)CN(C(=O)N(C)C)c2ccc(F)cc23)CC1 (stereo not drawn) [compound 987] | 25 to 100 | 25 to 100 |  |  |  |  | M1 Activity (M1 muscarinic receptor; [8]): xxx (activity was measured to be less than 2.0 μM); M4 Activity (M4 muscarinic receptor; [9]): xxx (activity was measured to be less than 2.0 μM)
